According to ChEMBL document CHEMBL1128983, “Synthesis and biological activity of novel sialyl-lewisX conjugates” (Bioorg Med Chem Lett, 1996):

Target: T1, E-selectin (Homo sapiens, UniProt P16581)
T1 sequence (P16581 whole entry): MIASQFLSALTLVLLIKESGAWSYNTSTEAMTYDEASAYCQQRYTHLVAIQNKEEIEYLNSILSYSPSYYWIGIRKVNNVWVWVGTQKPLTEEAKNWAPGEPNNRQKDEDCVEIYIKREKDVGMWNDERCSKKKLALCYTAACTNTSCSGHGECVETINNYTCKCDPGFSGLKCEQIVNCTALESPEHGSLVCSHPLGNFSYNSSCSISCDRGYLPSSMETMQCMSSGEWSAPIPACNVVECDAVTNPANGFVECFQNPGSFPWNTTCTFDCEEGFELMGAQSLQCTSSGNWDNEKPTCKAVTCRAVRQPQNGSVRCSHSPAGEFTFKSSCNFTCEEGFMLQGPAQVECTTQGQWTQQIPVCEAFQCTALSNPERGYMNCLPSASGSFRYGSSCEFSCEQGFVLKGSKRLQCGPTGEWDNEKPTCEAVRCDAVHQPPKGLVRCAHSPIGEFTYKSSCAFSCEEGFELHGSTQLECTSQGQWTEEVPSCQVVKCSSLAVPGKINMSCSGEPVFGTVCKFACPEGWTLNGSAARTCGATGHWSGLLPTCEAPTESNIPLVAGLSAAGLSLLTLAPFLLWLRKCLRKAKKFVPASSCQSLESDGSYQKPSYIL
Assay: Compound was tested for inhibition of HL60 cell adhesion to recombinant Selectin E IgG fusion protein obtained from transfected COS cells
Assay type: functional, cell-based, HL-60

Compound	IC50
CC(=O)N[C@H]1[C@H]([C@H](O)[C@H](O)CO)O[C@@](O[C@@H]2[C@H](O)[C@H](O[C@H]3[C@H](O[C@@H]4O[C@@H](C)[C@@H](O)[C@H](O)[C@@H]4O)[C@H](NC(C)=O)[C@H](NC(=O)[C@H](C)NC(=O)[C@@H]4CCCN4C(=O)CNC(=O)CNC(=O)[C@@H]4CCCN4C(=O)CN)O[C@H]3CO)O[C@@H](CO)[C@@H]2O)(C(=O)O)C[C@H]1O	5000 µM
CC(=O)N[C@H]1[C@H]([C@H](O)[C@H](O)CO)O[C@@](O[C@@H]2[C@H](O)[C@H](O[C@H]3[C@H](O[C@@H]4O[C@@H](C)[C@@H](O)[C@H](O)[C@@H]4O)[C@H](NC(C)=O)[C@H](NC(=O)[C@H](C)NC(=O)[C@H](CC(=O)O)NC(=O)CNC(=O)[C@@H](N)CCCN=C(N)N)O[C@H]3CO)O[C@@H](CO)[C@@H]2O)(C(=O)O)C[C@H]1O	> 1000 µM
CC(=O)N[C@@H]1[C@H](OCCCCCCNC(=O)CCC(=O)O)O[C@@H](CO)[C@@H](O[C@@H]2O[C@@H](CO)[C@H](O)[C@H](O[C@]3(C(=O)O)C[C@@H](O)[C@@H](NC(C)=O)[C@H]([C@H](O)[C@H](O)CO)O3)[C@@H]2O)[C@@H]1O[C@@H]1O[C@@H](C)[C@@H](O)[C@H](O)[C@@H]1O	1150 µM
CC(=O)N[C@@H]1[C@H](OCCCCCC/N=C(S)/N=C2\C=CC(=C3c4ccc(O)cc4Oc4cc(O)ccc43)C(C(=O)O)=C2)O[C@@H](CO)[C@@H](O[C@@H]2O[C@@H](CO)[C@H](O)[C@H](O[C@]3(C(=O)O)C[C@@H](O)[C@@H](NC(C)=O)[C@H]([C@H](O)[C@H](O)CO)O3)[C@@H]2O)[C@@H]1O[C@@H]1O[C@@H](C)[C@@H](O)[C@H](O)[C@@H]1O	650 µM
CC(=O)N[C@@H]1[C@H](OCCCCCCN)O[C@@H](CO)[C@@H](O[C@@H]2O[C@@H](CO)[C@H](O)[C@H](O[C@]3(C(=O)O)C[C@@H](O)[C@@H](NC(C)=O)[C@H]([C@H](O)[C@H](O)CO)O3)[C@@H]2O)[C@@H]1O[C@@H]1O[C@@H](C)[C@@H](O)[C@H](O)[C@@H]1O	1000 µM

Compounds with a lower IC50, results first:

IC50	Compound
590 µM	CC(=O)N[C@@H]1[C@H](OCCCCCCNC(=O)CCCC[C@@H]2SC[C@@H]3NC(=O)N[C@@H]32)O[C@@H](CO)[C@@H](O[C@@H]2O[C@@H](CO)[C@H](O)[C@H](O[C@]3(C(=O)O)C[C@@H](O)[C@@H](NC(C)=O)[C@H]([C@H](O)[C@H](O)CO)O3)[C@@H]2O)[C@@H]1O[C@@H]1O[C@@H](C)[C@@H](O)[C@H](O)[C@@H]1O
280 µM	CC(=O)N[C@@H]1[C@H](OCCCCCCNC(=O)[C@H]2CC[C@H](CN3C(=O)C=CC3=O)CC2)O[C@@H](CO)[C@@H](O[C@@H]2O[C@@H](CO)[C@H](O)[C@H](O[C@]3(C(=O)O)C[C@@H](O)[C@@H](NC(C)=O)[C@H]([C@H](O)[C@H](O)CO)O3)[C@@H]2O)[C@@H]1O[C@@H]1O[C@@H](C)[C@@H](O)[C@H](O)[C@@H]1O
